Test results from patent US11096942B2, “Heterocyclic compounds and uses thereof” (Celgene CAR LLC, priority 2010, dated 2021).
Like-named read-outs stand apart in the source and are kept apart here.

Legend:
[1] = test system: HCC827 cells (EGFR delE746-A750); assay: Cell proliferation (CellTiter Glo, 72 hr), HCC827 cells; format: cell-based, human
Description: (§1) A431 human epidermoid carcinoma, H1975 human NSCLC and HCC827 human NSCLC adenocarcinoma cells were obtained from the American Type Culture Center (Manassas, Va.). A431 cells were grown in DMEM (Invitrogen, Carlsbad, Calif.) supplemented with 10% FBS (HyClone, South Logan, Utah) and 1% Penicillin-Streptomycin (P/S, Lonza, Walkersville, Md.).
(§2) Cells were plated in Growth Media supplemented with 5% FBS and 1% P/S at a density of 3,000 cells per well in 96 well tissue culture plates (Corning). […] Growth inhibition (GI50) values were determined by Graph Pad Prism.

[2] = test system: H1975 cells (EGFR L858R/T790M); assay: Cell proliferation (CellTiter Glo, 72 hr), H1975 cells; format: cell-based, human
Description: as §1, §2

[3] = biological target: EGFR L858R/T790M (H1975 cells) (Homo sapiens (Human), UniProt P00533, L858R/T790M); assay: Phospho-EGFR signaling immunoblot (1 hr), H1975 cells; format: cell-based; details: WT EGFR (A431) vs H1975
Description: as §1
All primary antibodies were obtained from Cell Signaling (Danvers, Mass.) and used at 1:1000. Secondary antibodies were used at 1:10,000. Goat anti-mouse IgG IRDye 800CW antibody was obtained from LiCor Biosciences (Lincoln, Nebr.) and goat anti-rabbit IgG Alexa Fluor 680 was obtained from Invitrogen.
Cells were grown in 12-well plates (Corning, Coring, N.Y.) to 90% confluence and then incubated in low-serum (0.1% FBS) media for 16-18 hr. […] A431 cells were then stimulated with 50 ng/ml EGF (Peprotech, Rocky Hill, N.J.) for 15 min. After treatment, cell monolayers were washed with cold PBS (Invitrogen) and immediately lysed by scrapping into 60 uL cold Cell Extraction Buffer (Invitrogen) supplemented with Complete Protease inhibitors (Roche, Indianapolis, Ind.) and PhosphoSTOP (Roche) phosphatase inhibitors.
Phospho-protein signals were quantitated using Odyssey Infrared Imaging (Li-Cor Biosciences).
To assess phosphor-EGFR signaling, blots were probed with rabbit anti-Phospho-EGFR (Y1068) and mouse total anti-EGFR antibodies. Phospho-EGFR signal was normalized to total EGFR expression for each sample. […] Normalized data was fitted using a sigmoidal curve analysis program (Graph Pad Prism version 5) with variable Hill slope to determine the EC50 values.

[4] = proliferation, WT EGFR (A431) vs HCC827
[5] = proliferation, WT EGFR (A431) vs H1975

Ratio WT/mutant [3]	Compound	Ratio WT/mutant [1, 4]	Ratio WT/mutant [2, 5]	Ratio WT/mutant [1]	Ratio WT/mutant [2]
>50	C=CC(=O)Nc1cccc(Oc2nc(Nc3ccc(N4CCOCC4)cc3OC)ncc2C(F)(F)F)c1 [Compound I-1, N-(3-(2-(2-methoxy-4-morpholinophenylamino)-5-(trifluoromethyl)pyrimidin-4-yloxy)phenyl)acrylamide]	>15	>15		
	C=CC(=O)Nc1cccc(Oc2nc(Nc3ccc(N4CCCOCC4)cc3OC)ncc2Cl)c1 [Compound I-37, N-(3-(5-chloro-2-(2-methoxy-4-(1,4-oxazepan-4-yl)phenylamino)pyrimidin-4-yloxy)phenyl)acrylamide]	>10	>1		
>1	C=CC(=O)Nc1cccc(Nc2nc(Nc3ccc(N4CCN(S(C)(=O)=O)CC4)cc3OC)ncc2Cl)c1 [Compound I-41, N-(3-(5-chloro-2-(2-methoxy-4-(4-(methylsulfonyl)piperazin-1-yl)phenylamino)pyrimidin-4-ylamino)phenyl)acrylamide]	>20	>1		
	C=CC(=O)Nc1cccc(Nc2nc(Nc3ccc(N4CCCN(C(=O)C(F)(F)F)CC4)cc3OC)ncc2C(F)(F)F)c1 [Compound I-19, N-(3-(2-(2-methoxy-4-(4-(2,2,2-trifluoroacetyl)-1,4-diazepan-1-yl)phenylamino)-5-(trifluoromethyl)pyrimidin-4-ylamino)phenyl)acrylamide]	>10	>5		
>1	C=CC(=O)Nc1cccc(Nc2nc(Nc3ccc(N4CCN(C(C)=O)CC4)cc3OC)ncc2Cl)c1 [Compound I-8, N-(3-(2-(4-(4-acetylpiperazin-1-yl)-2-methoxyphenylamino)-5-chloropyrimidin-4-ylamino)phenyl)acrylamide]	>20	>1		
	C=CC(=O)Nc1cccc(Nc2nc(Nc3ccc(N4CCCOCC4)cc3OC)ncc2C(F)(F)F)c1 [Compound I-38, N-(3-(2-(2-methoxy-4-(1,4-oxazepan-4-yl)phenylamino)-5-(trifluoromethyl)pyrimidin-4-ylamino)phenyl)acrylamide]	>5	>1		
>20	C=CC(=O)Nc1cccc(Nc2nc(Nc3ccc(N4CCS(=O)(=O)CC4)cc3OC)ncc2C(F)(F)F)c1 [Compound I-49, N-(3-(2-(2-methoxy-4,4-dioxo-4-thiomorpholinophenylamino)-5-(trifluoromethyl)pyrimidin-4-ylamino)phenyl)acrylamide]	>25	>10		
	C=CC(=O)Nc1cccc(Nc2nc(Nc3ccc(N4CCN(C(=O)OC)CC4)cc3OC)ncc2C(F)(F)F)c1 [Compound I-29, methyl 4-(4-(4-(3-acrylamidophenylamino)-5-(trifluoromethyl)pyrimidin-2-ylamino)-3-methoxyphenyl)piperazine-1-carboxylate]	>15	>10		
	C=CC(=O)Nc1cccc(Oc2nc(Nc3ccc(N4CCN(C(C)=O)CC4)cc3OC)ncc2C(F)(F)F)c1 [Compound I-10, N-(3-(2-(4-(4-acetylpiperazin-1-yl)-2-methoxyphenylamino)-5-(trifluoromethyl)pyrimidin-4-yloxy)phenyl)acrylamide]	>20	>1		
>35	C=CC(=O)Nc1cccc(Nc2nc(Nc3ccc(N4CCN(C(=O)C(C)(C)C)CC4)cc3OC)ncc2C(F)(F)F)c1 [Compound I-34, N-(3-(2-(2-methoxy-4-(4-pivaloylpiperazin-1-yl)phenylamino)-5-(trifluoromethyl)pyrimidin-4-ylamino)phenyl)acrylamide]	>50	>5		
	C=CC(=O)Nc1cccc(Oc2nc(Nc3ccc(N4CCN(C(C)=O)CC4)cc3OC)ncc2Cl)c1 [Compound I-9, N-(3-(2-(4-(4-acetylpiperazin-1-yl)-2-methoxyphenylamino)-5-chloropyrimidin-4-yloxy)phenyl)acrylamide]	>50	>5		
>40	C=CC(=O)Nc1cccc(Oc2nc(Nc3ccc(N4CCN(S(C)(=O)=O)CC4)cc3OC)ncc2Cl)c1 [Compound I-26, N-(3-(5-chloro-2-(2-methoxy-4-(4-(methylsulfonyl)piperazin-1-yl)phenylamino)pyrimidin-4-yloxy)phenyl)acrylamide]	>35	>1		
	C=CC(=O)Nc1cccc(Oc2nc(Nc3ccc(N4CCN(C(=O)OC)CC4)cc3OC)ncc2C(F)(F)F)c1 [Compound I-20, methyl 4-(4-(4-(3-acrylamidophenoxy)-5-(trifluoromethyl)pyrimidin-2-ylamino)-3-methoxyphenyl)piperazine-1-carboxylate]			>15	>5
	C=CC(=O)Nc1cccc(Nc2nc(Nc3ccc(N4CCN(C(=O)CC)CC4)cc3OC)ncc2C(F)(F)F)c1 [Compound I-35, N-(3-(2-(2-methoxy-4-(4-propionylpiperazin-1-yl)phenylamino)-5-(trifluoromethyl)pyrimidin-4-ylamino)phenyl)acrylamide]	>25	>10		
	C=CC(=O)Nc1cccc(Oc2nc(Nc3ccc(N4CCN(C(=O)OC(C)(C)C)CC4)cc3OCC)ncc2Cl)c1 [Compound I-18, tert-butyl 4-(4-(4-(3-acrylamidophenoxy)-5-chloropyrimidin-2-ylamino)-3-ethoxyphenyl)piperazine-1-carboxylate]	>5	>1		
	C=CC(=O)Nc1cccc(Nc2nc(Nc3ccc(N4CCOCC4)cc3OC)ncc2Cl)c1 [Compound I-15, N-(3-(5-chloro-2-(2-methoxy-4-morpholinophenylamino)pyrimidin-4-ylamino)phenyl)acrylamide]	>10	>1		
	C=CC(=O)Nc1cccc(Oc2nc(Nc3ccc(N4CCOCC4)cc3OC(F)F)ncc2C(F)(F)F)c1 [Compound I-13, N-(3-(2-(2-(difluoromethoxy)-4-morpholinophenylamino)-5-(trifluoromethyl)pyrimidin-4-yloxy)phenyl)acrylamide]	>50	>10		
	C=CC(=O)Nc1cccc(Oc2nc(Nc3ccc(N4CCN(S(N)(=O)=O)CC4)cc3OC)ncc2C(F)(F)F)c1 [Compound I-27, N-(3-(2-(2-methoxy-4-(4-sulfamoylpiperazin-1-yl)phenylamino)-5-(trifluoromethyl)pyrimidin-4-yloxy)phenyl)acrylamide]	>10	>1		
	C=CC(=O)Nc1cccc(Oc2nc(Nc3ccc(N4CCOCC4)cc3OC(F)F)ncc2Cl)c1 [Compound I-36, N-(3-(5-chloro-2-(2-(difluoromethoxy)-4-morpholinophenylamino)pyrimidin-4-yloxy)phenyl)acrylamide]	>50	>25		
	C=CC(=O)Nc1cccc(Oc2nc(Nc3ccc(N4CCCN(C(=O)OC(C)(C)C)CC4)cc3OC)ncc2C(F)(F)F)c1 [Compound I-39, tert-butyl 4-(4-(4-(3-acrylamidophenoxy)-5-(trifluoromethyl)pyrimidin-2-ylamino)-3-methoxyphenyl)-1,4-diazepane-1-carboxylate]	>1	<1		
	C=CC(=O)Nc1cccc(Oc2nc(Nc3ccc(N4CCN(C(=O)CC(C)(C)C)CC4)cc3OC)ncc2Cl)c1 [Compound I-23, N-(3-(5-chloro-2-(4-(4-(3,3-dimethylbutanoyl)piperazin-1-yl)-2-methoxyphenylamino)pyrimidin-4-yloxy)phenyl)acrylamide]	>20	>1		
	C=CC(=O)Nc1cccc(Nc2nc(Nc3ccc(N4CCN(C(=O)OC(C)(C)C)[C@H](C(=O)OC)C4)cc3OC)ncc2C(F)(F)F)c1 [Compound I-50, (S)-1-tert-butyl 2-methyl 4-(4-(4-(3-acrylamidophenylamino)-5-(trifluoromethyl)pyrimidin-2-ylamino)-3-methoxyphenyl)piperazine-1,2-dicarboxylate]	>50	>10		
	C=CC(=O)Nc1cccc(Nc2nc(Nc3ccc(N4CCN(C(=O)NC)CC4)cc3OC)ncc2C(F)(F)F)c1 [Compound I-28, 4-(4-(4-(3-acrylamidophenylamino)-5-(trifluoromethyl)pyrimidin-2-ylamino)-3-methoxyphenyl)-N-methylpiperazine-1-carboxamide]	>50	>5		
